Source: paper PMC4774911, “Biochemical Screening of Five Protein Kinases from Plasmodium falciparum against 14,000 Cell-Active Compounds” (PLoS ONE, 2016)
Values joined by “and” are separate entries in the source; they are usually repeats but may differ in a detail not shown here. Equal values may be shown once.

Assays:
Experiment in all cases: biochemical
FER = FER (Homo sapiens, UniProt P16591)
CDC42BPG = CDC42BPG (Homo sapiens, UniProt Q6DT37)
ACVR1B = molecular target: T1, ACVR1B (Homo sapiens, UniProt P36896)
T1 sequence (P36896 1-505): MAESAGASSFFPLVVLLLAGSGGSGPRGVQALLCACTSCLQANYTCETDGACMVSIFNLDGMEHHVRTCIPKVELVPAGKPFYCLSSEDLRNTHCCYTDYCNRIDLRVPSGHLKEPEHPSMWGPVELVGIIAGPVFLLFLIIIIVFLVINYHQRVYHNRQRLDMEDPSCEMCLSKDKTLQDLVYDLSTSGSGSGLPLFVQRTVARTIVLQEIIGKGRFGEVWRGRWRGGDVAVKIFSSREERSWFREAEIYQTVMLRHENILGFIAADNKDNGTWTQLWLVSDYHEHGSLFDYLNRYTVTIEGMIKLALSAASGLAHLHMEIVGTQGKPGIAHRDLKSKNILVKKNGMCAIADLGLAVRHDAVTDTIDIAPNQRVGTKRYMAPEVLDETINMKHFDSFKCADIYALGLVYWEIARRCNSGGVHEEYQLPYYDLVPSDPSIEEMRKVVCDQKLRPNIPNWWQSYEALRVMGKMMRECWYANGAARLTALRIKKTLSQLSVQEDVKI

MARK3 = MARK3 (Homo sapiens, UniProt P27448)
Sequence of MARK3 (P27448 whole entry): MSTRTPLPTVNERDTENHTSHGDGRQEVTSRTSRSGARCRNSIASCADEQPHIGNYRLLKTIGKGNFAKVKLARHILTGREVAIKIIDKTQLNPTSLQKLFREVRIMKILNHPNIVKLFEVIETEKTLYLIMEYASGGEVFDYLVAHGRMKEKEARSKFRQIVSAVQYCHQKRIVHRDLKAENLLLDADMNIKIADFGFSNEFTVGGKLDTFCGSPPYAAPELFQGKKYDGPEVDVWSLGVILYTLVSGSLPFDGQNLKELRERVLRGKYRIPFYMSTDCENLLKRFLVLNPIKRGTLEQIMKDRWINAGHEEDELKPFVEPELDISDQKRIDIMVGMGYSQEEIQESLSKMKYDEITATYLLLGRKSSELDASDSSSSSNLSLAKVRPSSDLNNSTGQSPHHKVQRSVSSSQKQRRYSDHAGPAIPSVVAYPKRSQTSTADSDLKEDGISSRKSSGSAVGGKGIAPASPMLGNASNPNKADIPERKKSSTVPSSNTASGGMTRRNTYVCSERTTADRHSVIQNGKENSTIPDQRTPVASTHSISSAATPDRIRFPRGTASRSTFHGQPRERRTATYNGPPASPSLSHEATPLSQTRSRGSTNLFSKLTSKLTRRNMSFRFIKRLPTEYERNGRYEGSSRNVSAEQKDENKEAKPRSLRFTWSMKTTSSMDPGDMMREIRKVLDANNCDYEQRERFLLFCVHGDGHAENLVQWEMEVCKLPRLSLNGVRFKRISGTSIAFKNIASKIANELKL

CSNK2A2 = CSNK2A2 (Homo sapiens, UniProt P19784)
Sequence of CSNK2A2 (P19784 whole entry): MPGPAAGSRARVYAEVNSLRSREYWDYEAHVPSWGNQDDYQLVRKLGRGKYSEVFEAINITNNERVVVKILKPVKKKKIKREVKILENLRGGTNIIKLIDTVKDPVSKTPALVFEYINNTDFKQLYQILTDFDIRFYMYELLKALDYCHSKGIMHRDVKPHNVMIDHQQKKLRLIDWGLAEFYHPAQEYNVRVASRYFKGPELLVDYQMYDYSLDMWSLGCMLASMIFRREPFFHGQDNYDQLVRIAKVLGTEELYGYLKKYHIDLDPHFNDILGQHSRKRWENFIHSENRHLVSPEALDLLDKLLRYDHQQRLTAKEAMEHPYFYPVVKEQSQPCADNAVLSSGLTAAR

TBK1 = molecular target: T2, TBK1 (Homo sapiens, UniProt Q9UHD2)
T2 sequence (Q9UHD2 1-729): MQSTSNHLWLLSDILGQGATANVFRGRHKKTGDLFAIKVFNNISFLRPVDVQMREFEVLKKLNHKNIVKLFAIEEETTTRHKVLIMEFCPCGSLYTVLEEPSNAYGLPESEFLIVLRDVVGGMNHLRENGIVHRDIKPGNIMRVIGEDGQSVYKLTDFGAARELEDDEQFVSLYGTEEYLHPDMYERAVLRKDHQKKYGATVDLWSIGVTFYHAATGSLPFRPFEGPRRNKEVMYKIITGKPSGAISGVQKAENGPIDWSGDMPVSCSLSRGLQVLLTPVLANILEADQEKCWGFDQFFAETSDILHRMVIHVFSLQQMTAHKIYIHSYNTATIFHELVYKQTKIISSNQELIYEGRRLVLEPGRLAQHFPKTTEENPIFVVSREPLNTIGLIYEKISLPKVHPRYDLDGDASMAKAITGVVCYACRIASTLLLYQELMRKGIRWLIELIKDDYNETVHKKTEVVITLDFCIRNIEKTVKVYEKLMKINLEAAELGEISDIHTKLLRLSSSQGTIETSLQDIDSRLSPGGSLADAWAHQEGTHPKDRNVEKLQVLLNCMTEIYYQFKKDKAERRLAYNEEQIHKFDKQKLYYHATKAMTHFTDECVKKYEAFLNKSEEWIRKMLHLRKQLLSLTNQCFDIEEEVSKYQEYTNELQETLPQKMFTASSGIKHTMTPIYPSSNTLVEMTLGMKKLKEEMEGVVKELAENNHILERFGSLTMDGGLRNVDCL

RPS6KA5 = RPS6KA5 (Homo sapiens, UniProt O75582)
CDK7 = CDK7 (Homo sapiens, UniProt P50613)
SRC = SRC (Homo sapiens, UniProt P12931)
Sequence of SRC (P12931 whole entry): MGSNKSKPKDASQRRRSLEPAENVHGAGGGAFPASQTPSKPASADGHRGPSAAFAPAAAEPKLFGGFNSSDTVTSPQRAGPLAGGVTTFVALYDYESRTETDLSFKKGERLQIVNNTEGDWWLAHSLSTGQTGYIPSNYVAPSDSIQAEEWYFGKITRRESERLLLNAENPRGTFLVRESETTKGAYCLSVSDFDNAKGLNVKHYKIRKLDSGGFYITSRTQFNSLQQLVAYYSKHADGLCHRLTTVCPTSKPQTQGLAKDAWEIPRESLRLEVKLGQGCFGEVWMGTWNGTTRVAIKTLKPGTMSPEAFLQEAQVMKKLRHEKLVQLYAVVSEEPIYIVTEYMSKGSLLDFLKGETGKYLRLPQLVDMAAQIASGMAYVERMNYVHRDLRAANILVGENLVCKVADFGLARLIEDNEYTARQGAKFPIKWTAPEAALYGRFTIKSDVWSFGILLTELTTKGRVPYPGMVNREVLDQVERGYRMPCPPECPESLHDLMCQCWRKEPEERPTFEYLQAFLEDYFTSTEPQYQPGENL

STRADA = molecular target: T3, STRADA (Homo sapiens, UniProt Q7RTN6)
T3 sequence (Q7RTN6 1-431): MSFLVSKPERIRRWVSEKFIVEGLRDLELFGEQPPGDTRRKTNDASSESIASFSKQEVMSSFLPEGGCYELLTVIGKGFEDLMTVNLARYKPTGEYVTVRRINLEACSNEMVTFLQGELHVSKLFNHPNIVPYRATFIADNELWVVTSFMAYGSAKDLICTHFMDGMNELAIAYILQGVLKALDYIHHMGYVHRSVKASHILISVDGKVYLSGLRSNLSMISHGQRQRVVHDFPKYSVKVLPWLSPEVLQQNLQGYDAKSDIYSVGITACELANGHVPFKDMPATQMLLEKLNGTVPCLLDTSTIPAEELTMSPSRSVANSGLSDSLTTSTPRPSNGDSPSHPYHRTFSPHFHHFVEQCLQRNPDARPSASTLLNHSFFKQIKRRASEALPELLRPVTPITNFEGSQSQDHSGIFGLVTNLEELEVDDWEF

MAP2K2 = MAP2K2 (Homo sapiens, UniProt P36507)
Sequence of MAP2K2 (P36507 whole entry): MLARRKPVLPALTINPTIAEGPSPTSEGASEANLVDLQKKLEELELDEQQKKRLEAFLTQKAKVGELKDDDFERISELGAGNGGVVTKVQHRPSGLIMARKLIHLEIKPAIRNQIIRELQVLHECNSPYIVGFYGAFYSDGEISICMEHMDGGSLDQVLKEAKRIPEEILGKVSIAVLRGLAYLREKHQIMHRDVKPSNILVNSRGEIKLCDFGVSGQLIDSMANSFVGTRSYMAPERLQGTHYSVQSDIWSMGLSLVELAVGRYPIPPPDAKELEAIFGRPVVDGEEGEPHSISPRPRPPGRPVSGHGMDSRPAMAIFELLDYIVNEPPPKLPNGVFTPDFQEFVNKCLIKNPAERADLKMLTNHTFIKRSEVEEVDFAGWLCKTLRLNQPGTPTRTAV

CSK = CSK (Homo sapiens, UniProt P41240)
Sequence of CSK (P41240 whole entry): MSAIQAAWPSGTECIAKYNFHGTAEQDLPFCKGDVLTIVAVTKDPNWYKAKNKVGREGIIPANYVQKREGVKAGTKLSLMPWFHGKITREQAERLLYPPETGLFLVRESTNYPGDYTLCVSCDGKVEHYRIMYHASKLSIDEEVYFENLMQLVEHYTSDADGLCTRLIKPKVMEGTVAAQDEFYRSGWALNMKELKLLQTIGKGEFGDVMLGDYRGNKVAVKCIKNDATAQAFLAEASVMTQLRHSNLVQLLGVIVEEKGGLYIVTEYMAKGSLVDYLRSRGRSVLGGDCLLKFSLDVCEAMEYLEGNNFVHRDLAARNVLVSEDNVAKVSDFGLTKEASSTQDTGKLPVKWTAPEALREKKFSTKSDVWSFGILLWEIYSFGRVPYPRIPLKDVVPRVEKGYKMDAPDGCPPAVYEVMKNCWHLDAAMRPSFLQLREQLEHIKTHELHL

DDR1 = DDR1 (Homo sapiens, UniProt Q08345)
PIP5K3 = PIP5K3 (Homo sapiens, UniProt Q9Y2I7)

Sequence of CDC42BPG (Q6DT37 whole entry): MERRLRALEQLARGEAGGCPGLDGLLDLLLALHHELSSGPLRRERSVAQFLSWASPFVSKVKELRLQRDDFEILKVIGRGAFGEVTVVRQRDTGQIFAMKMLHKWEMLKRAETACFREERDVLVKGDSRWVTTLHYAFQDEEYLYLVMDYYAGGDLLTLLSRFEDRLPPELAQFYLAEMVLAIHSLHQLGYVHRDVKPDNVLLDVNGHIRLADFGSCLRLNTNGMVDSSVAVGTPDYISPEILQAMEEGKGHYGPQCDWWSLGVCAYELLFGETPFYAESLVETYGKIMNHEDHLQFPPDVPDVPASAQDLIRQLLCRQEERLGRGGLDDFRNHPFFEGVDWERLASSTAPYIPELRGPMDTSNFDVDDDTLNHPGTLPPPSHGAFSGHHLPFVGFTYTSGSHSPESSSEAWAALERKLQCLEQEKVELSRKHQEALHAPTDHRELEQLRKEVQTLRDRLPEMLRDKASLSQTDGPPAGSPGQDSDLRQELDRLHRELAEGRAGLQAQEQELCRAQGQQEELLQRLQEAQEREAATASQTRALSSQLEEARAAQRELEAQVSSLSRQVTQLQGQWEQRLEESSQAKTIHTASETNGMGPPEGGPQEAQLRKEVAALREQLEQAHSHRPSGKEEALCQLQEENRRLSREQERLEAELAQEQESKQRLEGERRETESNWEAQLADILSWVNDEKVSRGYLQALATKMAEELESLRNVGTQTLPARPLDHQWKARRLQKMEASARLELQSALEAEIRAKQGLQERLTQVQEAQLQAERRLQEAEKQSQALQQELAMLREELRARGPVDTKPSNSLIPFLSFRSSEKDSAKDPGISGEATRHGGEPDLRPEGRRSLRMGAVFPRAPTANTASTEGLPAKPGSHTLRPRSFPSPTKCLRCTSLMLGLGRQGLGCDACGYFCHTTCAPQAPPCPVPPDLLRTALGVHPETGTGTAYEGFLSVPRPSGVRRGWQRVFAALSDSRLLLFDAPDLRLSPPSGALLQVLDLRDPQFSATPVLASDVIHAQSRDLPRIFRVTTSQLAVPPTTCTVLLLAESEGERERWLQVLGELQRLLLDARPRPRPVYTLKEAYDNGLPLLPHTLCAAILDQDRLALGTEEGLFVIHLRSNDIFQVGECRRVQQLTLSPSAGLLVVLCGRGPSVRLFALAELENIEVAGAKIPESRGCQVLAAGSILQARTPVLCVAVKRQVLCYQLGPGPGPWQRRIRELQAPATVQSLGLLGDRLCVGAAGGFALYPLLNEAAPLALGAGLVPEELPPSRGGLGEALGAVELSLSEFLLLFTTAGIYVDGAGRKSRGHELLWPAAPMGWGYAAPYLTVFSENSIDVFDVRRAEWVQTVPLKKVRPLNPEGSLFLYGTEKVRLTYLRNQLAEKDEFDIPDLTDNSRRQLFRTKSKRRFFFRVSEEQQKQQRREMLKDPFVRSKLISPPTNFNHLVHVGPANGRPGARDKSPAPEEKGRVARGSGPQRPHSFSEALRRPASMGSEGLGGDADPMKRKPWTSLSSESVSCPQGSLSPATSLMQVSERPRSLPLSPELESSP
Sequence of FER (P16591 whole entry): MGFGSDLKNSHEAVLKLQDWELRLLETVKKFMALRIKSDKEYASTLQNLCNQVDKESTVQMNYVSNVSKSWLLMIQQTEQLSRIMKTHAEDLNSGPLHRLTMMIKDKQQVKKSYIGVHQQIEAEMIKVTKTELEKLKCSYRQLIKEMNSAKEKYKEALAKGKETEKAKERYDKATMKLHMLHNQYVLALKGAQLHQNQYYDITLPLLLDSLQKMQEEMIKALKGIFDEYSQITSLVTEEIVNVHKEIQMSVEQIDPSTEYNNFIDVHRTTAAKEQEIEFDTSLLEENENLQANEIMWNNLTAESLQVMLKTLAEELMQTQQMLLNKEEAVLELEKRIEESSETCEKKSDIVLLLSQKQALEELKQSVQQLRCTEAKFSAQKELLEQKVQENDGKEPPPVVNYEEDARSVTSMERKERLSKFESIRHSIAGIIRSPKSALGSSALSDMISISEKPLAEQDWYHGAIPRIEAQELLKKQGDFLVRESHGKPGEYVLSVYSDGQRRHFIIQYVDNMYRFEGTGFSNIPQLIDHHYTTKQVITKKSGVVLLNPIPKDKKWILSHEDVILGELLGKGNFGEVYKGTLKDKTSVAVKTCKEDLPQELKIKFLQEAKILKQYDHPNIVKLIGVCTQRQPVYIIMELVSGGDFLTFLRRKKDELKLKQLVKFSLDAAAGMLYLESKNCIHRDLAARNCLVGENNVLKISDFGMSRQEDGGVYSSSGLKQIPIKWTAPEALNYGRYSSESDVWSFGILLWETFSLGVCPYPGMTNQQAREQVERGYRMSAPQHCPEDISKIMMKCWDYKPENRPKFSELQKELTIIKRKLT

CN(C)CC(O)COc1ccc(Nc2ncc([N+](=O)[O-])c(Nc3ccccc3O)n2)cc1.O=C(O)C(F)(F)F (stereo not drawn) [TCMDC-141399]
IC50 (FER): 930 nM and 810 nM | IC50 (CDC42BPG): 9600 nM | IC50 (ACVR1B): > 20000 nM | IC50 (MARK3): 10000 nM and 6600 nM | IC50 (CSNK2A2): 56 nM and 45 nM | IC50 (TBK1): > 20000 nM | IC50 (RPS6KA5): > 20000 nM | IC50 (CDK7): 1800 nM and 5800 nM | IC50 (SRC): > 20000 nM | IC50 (STRADA): > 20000 nM | IC50 (MAP2K2): > 20000 nM | IC50 (CSK): > 20000 nM | IC50 (DDR1): 11000 nM | IC50 (PIP5K3): 7500 nM and 5300 nM

Cl.NCC1(c2nc(-c3ccc(Cl)c(O)c3)c(-c3ccncc3)[nH]2)CCCCC1 [TCMDC-141154]
IC50 (FER): > 20000 nM | IC50 (CDC42BPG): 8000 nM | IC50 (ACVR1B): 590 nM | IC50 (MARK3): > 20000 nM | IC50 (CSNK2A2): > 20000 nM | IC50 (TBK1): > 20000 nM | IC50 (RPS6KA5): > 20000 nM | IC50 (CDK7): > 20000 nM | IC50 (SRC): 290 nM | IC50 (STRADA): > 20000 nM | IC50 (MAP2K2): 9000 nM and > 20000 nM | IC50 (CSK): 4400 nM | IC50 (DDR1): 1800 nM | IC50 (PIP5K3): 1000 nM

CN1CCN(c2ccc(Nc3ncc(C#N)c(Nc4ccccc4C(N)=O)n3)cc2)CC1.Cl [TCMDC-134116]
IC50 (FER): 220 nM and 210 nM | IC50 (CDC42BPG): 1000 nM | IC50 (ACVR1B): 4000 nM | IC50 (MARK3): 120 nM and 140 nM | IC50 (CSNK2A2): ≤ 32 nM | IC50 (TBK1): 530 nM and 510 nM | IC50 (RPS6KA5): 500 nM and 750 nM | IC50 (CDK7): 530 nM and 620 nM | IC50 (SRC): 480 nM and 410 nM | IC50 (STRADA): > 20000 nM | IC50 (MAP2K2): 830 nM and 980 nM | IC50 (CSK): 4100 nM | IC50 (DDR1): 600 nM and 490 nM | IC50 (PIP5K3): 1300 nM and 1500 nM
